Measurements reported in US20240116923A1, “USE OF INDOLE, 6- AND 7-AZAINDOLE DERIVATIVES AS INHIBITORS OF FERROPTOSIS REGULATED CELL DEATH” (Seabelife, priority 2021, published 2024).
Like-named read-outs stand apart in the source and are kept apart here.

Assays:
Format in all cases: cell-based
[1] = tested on: Rat dopaminergic neurons; assay: Protective effect after 6-OHDA injury on rat primary dopaminergic neurons survival (TH staining); conditions: p<0.0001
Description: As explained in Ding et al., J Neurochem., 2004, (89), administration of 6-Hydroxydopamine (6-OHDA), a neurotoxin, has been widely used to cause the selective degeneration of dopamine (DA) neurons in in vitro and in vivo models. These models are used as Parkinson's disease models, which is characterized by the progressive loss of DA neurons of the substantia nigra.
Rat dopaminergic neurons were cultured as described by Schinelli et al., J Neurochem., 1988, 50(6). The cells were seeded at a density of 40 000 cells/well in 96 well-plates (precoated with poly-D-lysine; Greiner, Ref: 655940, Batch: E20093UL) and were cultured at 37° C. in a humidified air (95%)/CO2 (5%) atmosphere. Half of the medium was changed every 2 days with fresh medium. In these conditions, after 5 days of culture, astrocytes are present in the culture and release growth factor allowing neurons differentiation. In this condition, 2 to 5% of neurons are dopaminergic neurons.
6-OHDA (Sigma, Ref: 162957, Batch MKCK5243) was reconstituted in define culture medium at 40 μM (stock solution). The control medium was prepared in the same conditions. After 7 days of culture, primary mesencephalic neurons were pre-treated for 1 hour with test compounds or reference compound (BDNF, 50 ng/mL) and then intoxicated with 6-OHDA at a final concentration of 20 μM for 2 days incubation in order to induce a neuronal cell death of about 50%+/−5%.
After 2 days of intoxication in presence or absence of test compounds, cells were fixed by a solution of 4% paraformaldehyde (Sigma, ref 6148, Batch: SZBE2390V) for 20 min at room temperature, the control conditions were fixed as well following the same procedure. The cells were then permeabilized and nonspecific sites were blocked with a solution of phosphate buffered saline (PBS; PanBiotech; ref: P04-36500, Batch: 7701020) containing 0.1% of saponin (Sigma; ref: S7900, Batch: BCBL8667V) and 1% FCS for 15 min at room temperature. Cells were incubated with a mouse monoclonal anti-Tyrosine Hydroxylase (TH, 1/10 000, Sigma; ref: T1299, Batch: 014M4835) antibody in a solution of PBS overnight at 4° C. Antibody against TH stained dopaminergic neurons. […] Nuclei of cells were labelled by a fluorescent marker (Hoechst, Sigma; ref: B1155, Batch: 046M4048V) in the same solution. For each condition, 20 pictures per well were taken using InCell Analyzer™ 2200 (GE Healthcare) with 20× magnification. Images of each culture well were taken in same condition. Analysis of cell bodies of TH positive neurons was performed using Developer software (GE healthcare). A total of 6 data per experimental condition were provided.

[2] = tested on: mouse hippocampal neuronal cell line HT22; assay: Neurotoxicity and excitotoxicity assay, HT22 cells + glutamate, erastin or RSL3, MTS cell viability; conditions: for EC50: Mus musculus
Description: (§1) The excitotoxicity model used was the mouse hippocampal neuronal HT22 cells treated with glutamate [Dixon et al., Cell, 2012, 149(5), 1060-1072]. Ferroptosis and oxidative stress are both associated in this glutamate-induced cell death [Chu et al., Neural Regen. Res., 2020, 15(3), 528-536]. Phenotypic screening was also carried out with additional cell death inducers, erastin and RSL3 ((1S,3R)-Ras-selective lethal), in HT22 and SH-SY5Y (human neuroblastoma cells). Erastin and RSL3 are well described molecules, used as chemical tools for the study of ferroptosis regulation and neuronal pathologies [Lewerenz et al., Front. Neurosci., 2018, 12: 214; Reichert et al., Int. J. Mol. Sci., 2020, 21, 8765].
(§2) Mouse hippocampal neuronal cell line (HT22, ATCC) and human neuroblastoma cell line (SH-SY5Y, ATCC) were grown in Dulbecco's Modified Eagle Medium (DMEM, Gibco) supplemented with 10% fetal bovine serum (FBS, Gibco) at 37° C. under 5% CO2 atmosphere. Neurotoxicity was induced by erastin or RSL3 and excitotoxicity was induced by glutamate. Cells were seeded in 96-well plates at 5,000 and 10,000 cells/well for HT22 and SH-SY5Y cell lines, respectively. Cells were treated with 0.5-1 μM Erastin (HT22 cells) or 10 μM Erastin (SH-SY5Y cells) or 5-10 mM glutamate (HT22 cells) or 0.5 μM RSL3 (HT22 cells) or 5 μM RSL3 (SH-SY5Y cells) for 24 h in presence of increasing concentrations of inhibitors. Cells treated with DMSO only were used as controls. Cell viability was assessed by MTS assay (CellTiter 96 AQueous One Solution Cell Proliferation assay, Promega).
(§3) In FIGS. 1, 2A and 2B, an inhibitor was added to HT22 (FIG. 1: compound 6) or SH-SY5Y (FIG. 2A: compound 6; FIG. 2B: compound 25) cells in the presence or not of cell death inducers (erastin, glutamate or RSL3). […] EC50 values for compounds 1-28 were calculated from dose-response curves using Graphpad Prism software.

[3] = tested on: human neuroblastoma cell line SH-SY5Y; assay: Neurotoxicity assay, SH-SY5Y cells + erastin or RSL3, MTS cell viability; conditions: for EC50: Homo sapiens
Description: as §1, §2, §3

[4] = HT-22, 24 h, read-out: EC50 HT22 Erastin
[5] = HT-22, 24 h, read-out: EC50 HT22 Glutamate
[6] = HT-22, 24 h, read-out: EC50 HT22 RSL3
[7] = SH-SY5Y, 24 h, read-out: EC50 SH-SY5Y Erastin
[8] = SH-SY5Y, 24 h, read-out: EC50 SH-SY5Y RSL3
[9] = HT-22, HT22 cells, 0.5 μM RSL3, 24 h, MTS, read-out: EC50 HT22 RSL3
[10] = HT-22, HT22 cells, 0.5-1 μM Erastin, 24 h, MTS, read-out: EC50 HT22 Erastin
[11] = HT-22, HT22 cells, 5-10 mM glutamate, 24 h, MTS, read-out: EC50 HT22 Glutamate
[12] = SH-SY5Y cells, 10 μM Erastin, 24 h, MTS, read-out: EC50 SH-SY5Y Erastin
[13] = SH-SY5Y cells, 5 μM RSL3, 24 h, MTS, read-out: EC50 SH-SY5Y RSL3

| Molecule | EC50 [2, 9] [µM] | EC50 [2, 10] [µM] | EC50 [2, 11] [µM] | EC50 [3, 12] [µM] | EC50 [3, 13] [µM] | other results |
| --- | --- | --- | --- | --- | --- | --- |
| NCCc1cc(O)c(O)cc1O [Compound 6-OHDA, 6-hydroxydopamine, reference compound] | – | – | – | – | – | cellular death of dopaminergic neurons ([1]; 6-OHDA 20 μM alone, 2 days): 48% |
| CCOc1ccc(-c2cc3cccn(C(=O)N(C(C)C)C(C)C)c-3n2)cc1 [Compound 24, 2-(4-ethoxyphenyl)-N,N-diisopropyl-7H-pyrrolo[2,3-b]pyridine-7-carboxamide] | – | – | – | – | – | EC50 [2, 4]: > 50 µM; EC50 [2, 5]: > 50 µM; EC50 [2, 6]: 21 µM; EC50 [3, 7]: 11 µM; EC50 [3, 8]: 3.43 µM |
| CCOc1ccc(-c2cc3ccncc3n2OC(=O)c2ccccc2)cc1 [Compound 6, 2-(4-ethoxyphenyl)-1H-pyrrolo[2,3-c]pyridin-1-yl benzoate] | 2.31 | 2.05 | 1.64 | 0.18 | – | effect on cell viability without cell death inducers (potential cytotoxic effect of the molecule alone) ([2]; HT22 cells, 24 h, doses tested maximum 50 or 100 μM): no effect on cell viability; concentration reaching almost total inhibition of induced cell death ([2]; HT22 cells, in the presence of a ferroptosis inducer): 10 µM; effect on cell viability without cell death inducers (potential cytotoxic effect of the molecule alone) ([3]; SH-SY5Y cells, 24 h, doses tested maximum 50 or 100 μM): no effect on cell viability; concentration reaching almost total inhibition of induced cell death ([3]; SH-SY5Y cells, in the presence of a ferroptosis inducer): 1 µM |
| CCOc1ccc(-c2cc3ccc(Cc4ccncn4)nc3[nH]2)cc1 [Compound 42] | 7.06 | 8.04 | – | 3.62 | 1.84 | – |
| CCOc1ccc(-c2cc3ccc(C#N)nc3[nH]2)cc1 [Compound 35, 2-(4-ethoxyphenyl)-1H-pyrrolo[2,3-b]pyridine-6-carbonitrile] | 5.4 | 17 | – | 5.95 | 1.03 | – |
| CCOc1ccc(-c2cc3ccc(OC(C)=O)nc3[nH]2)cc1 [Compound 38] | 2.56 | 6.78 | – | 1.61 | 0.2 | – |
| CCOc1ccc(-c2cc3cccnc3n2CCN2CCOCC2)cc1 [Compound 20, 4-(2-(2-(4-ethoxyphenyl)-1H-pyrrolo[2,3-b]pyridin-1-yl)ethyl)morpholine] | 16.7 | 5.14 | 11.1 | 21.4 | 27.4 | – |
| CCOc1ccc(-c2cc3c(N4CCCCC4)ccnc3[nH]2)cc1 [Compound 13, 2-(4-ethoxyphenyl)-4-(piperidin-1-yl)-1H-pyrrolo[2,3-b]pyridine] | 44.1 | 3.62 | 0.92 | 1.11 | 9.25 | – |
| CCOc1ccc(-c2cc3ccc(OC(C)=O)nc3n2C(C)=O)cc1 [Compound 22, 1-acetyl-2-(4-ethoxyphenyl)-1H-pyrrolo[2,3-b]pyridin-6-yl acetate] | 9.09 | 5.53 | 5.31 | 1.16 | 0.79 | – |
| CCOc1ccc(-c2cc3ccc[n+]([O-])c3[nH]2)cc1 [Compound 23, 2-(4-ethoxyphenyl)-1H-pyrrolo[2,3-b]pyridine-7-oxide] | 9.93 | > 25 | > 25 | 26.3 | 2.64 | – |
| CCOc1ccc(-c2cc3c(Cl)ccnc3n2C(=O)OC(C)(C)C)cc1 [Compound 21, tert-butyl 4-chloro-2-(4-ethoxyphenyl)-1H-pyrrolo[2,3-b]pyridine-1-carboxylate] | – | > 25 | > 25 | > 25 | – | – |
| NCC(=O)Oc1ccc(-c2cc3cccnc3[nH]2)cc1 [Compound 8, 4-(1H-pyrrolo[2,3-b]pyridin-2-yl)phenyl glycinate] | – | – | – | – | – | EC50 [2, 4]: > 25 µM; EC50 [2, 5]: > 25 µM; EC50 [2, 6]: > 50 µM; EC50 [3, 7]: 21.5 µM; EC50 [3, 8]: 5.98 µM |
| CCOc1ccc(-c2cc3c(NCc4ccccc4)ccnc3[nH]2)cc1 [Compound 12, N-benzyl-2-(4-ethoxyphenyl)-1H-pyrrolo[2,3-b]pyridin-4-amine] | 0.94 | 0.91 | 0.5 | 0.43 | – | – |
| BDNF: Brain Derived Neurotrophic Factor, reference compound at 50 ng/mL (protein, UniProt P23560 19-247, looked up) Neurotrophic factor BDNF …: APMKEANIRGQGGLAYPGVRTHGTLESVNGPKAGSRGLTSLADTFEHVIEELLDEDQKVRPNEENNKDADLYTSRVMLSSQVPLEPPLLFLLEEYKNYLDAANMSMRVRRHSDPARRGELSVCDSISEWVTAADKKTAVDMSGGTVTVLEKVPVSKGQLKQYFYETKCNPMGYTKEGCRGIDKRHWNSQCRTTQSYVRALTMDSKKRIGWRFIRIDTSCVCTLTIKRGR | – | – | – | – | – | cellular death of dopaminergic neurons after 6-OHDA injury ([1]; 50 ng/mL, 1 h pre-treatment, 6-OHDA 20 μM 2 days (6-OHDA alone 48%)): 15% |
